In data set [1] the target is T1, MEK1 (Homo sapiens, UniProt Q02750).
T1 construct: N-terminal His-tagged recombinant human full length protein; purchased Invitrogen PV3303; host or cells: insect cells
Kind of data set: MEK Inhibition Assay-1 (Example 2): 33P-ATP, P81 filter-binding kinase assay. To be noted: read-out: Assay 1: biochemical MEK IC50. On the procedure: The following procedure can be used to measure biochemical activity. MEK1 inhibitory activity of compounds were tested using the following procedure. […] Nat Biotechnoi 2011, 29(11), 1039-45.
• Reaction buffer: 20 mM Hepes (pH 7.5), 10 mM MgCl2, 1 mM EGTA, 0.02% Brij35, 0.02 mg/mL BSA, 0.1 mM Na3VO4, 2 mM DTT, 1% DMSO • Enzyme: MEK1, Invitrogen cat #PV3303 • N-terminal His-tagged recombinant human full length protein, expressed in insect cells. Activated in vitro by RAF1. MW=49.2 kDa, GenBank Accession No. NP_002746. • Substrate: 5 μM ERK2 (K52R), • Kinase-dead mutant, (GenBank Accession No. NM_0011949), aa2-358 with N-terminal His6 tag, MW=43.63 kDa, expressed in E. coli.
The substrate was prepared in freshly prepared Reaction Buffer. The kinase was delivered into the substrate solution and gently mixed. Test compounds were delivered in 100% DMSO into the kinase reaction mixture by Acoustic technology (Echo550; nanoliter range), and incubated for 20 min at room temperature. ^33P-ATP was delivered into the reaction mixture to initiate the reaction. The reaction mixture was incubated for 2 hours at room temperature. Kinase activity was detected by P81 filter-binding method.

Data set [2] deals with p-ERK. Kind of data set: Human birthmark explant protocol (Example 1): p-ERK in nevus sebaceous explants. It is filed as cell-based. To be noted: topical gel. An excerpt: Study Objectives: The primary objective was to assess the efficacy of a topically-formulated compound described herein in suppressing p-ERK, a downstream biomarker of RAS/MAPK signaling in epidermal nevus and nevus sebaceous. The secondary objectives was to assess permeability (where the compound was applied topically) in birthmark explants treated with a compound described herein.
Sample Collection and Eligibility: Discarded human birthmark (epidermal nevus and nevus sebaceous) samples were obtained from the Stanford Surgery Clinic, using an approved human subjects protocol (Stanford IRB #18325). Specimens were identified under the direction of the Principal Investigator and placed in cell proliferation media (DMEM/F12 containing penicillin/streptomycin (0.1%); fungizone (40 μg/mL); B27 (without vitamin A).
Samples were primary, untreated birthmarks of at least 6 mm in size; samples were excised by a shave, punch biopsy or elliptical excision. Specimens were identified under the direction of the Principal Investigator. Specimens were chopped into 2 mm fragments and placed in 24-well plates containing cell proliferation media (DMEM/F12 containing penicillin/streptomycin (0.1%); fungizone (40 μg/mL); B27 (without vitamin A) and submerged in media with drug. For topical gel application, samples were placed in 96 well plates with epidermal surface exposed to air.
For the data provided in FIGS. 3 and 4, a gel topical gel formulation of Trametinib, Compound No. 2.003, Compound No. 4.029, or the gel topical formulation of vehicle only were topically applied to the surface of a birthmark explant at 4 hours for analysis. The gel formulation was 1% hydroxypropyl cellulose in DMSO/PEG 400 1:1 (v/v) and the tested compound was 1% by weight in the gel formulation. Samples were harvested at 4 hours for analysis. Harvested tissue was bisected and with half snap frozen and half fixed in 10% formalin and paraffin embedded for further analysis.
For the data provided in FIG. 5, a gelled topical gel formulation of Compound 2.003 or the gel topical formulation of vehicle only were topically applied to the surface of a birthmark explant at 4 hours for analysis. The gel formulation was 1.5% hydroxypropyl cellulose in the base formulation and the tested compound was 0.01% by weight of the base formulation. The Compositions of the base formulation are listed below. Samples were harvested at 4 hours for analysis. Harvested tissue was bisected and with half snap frozen and half fixed in 10% formalin and paraffin embedded for further analysis.
For the data provided in FIG. 6, three gelled topical gel formulations of Compound 2.003 at different concentrations or the gel topical formulation of vehicle only were topically applied to the surface of a birthmark explant at 4 hours for analysis. […]

Data set [3] addresses T2, MAP2K1 (MEK1) (Homo sapiens, UniProt Q02750).
T2 construct: purchased ThermoFisher
Kind of data set: MEK Inhibition Assay-2 (Example 3): Z'-LYTE biochemical assay. To be noted: Table 6; procedure of Example 3; read-out: IC50 against MEK1. How it is done:
MEK1 inhibitory activity of compounds were tested using the following procedure (protocol available at thermofisher.com/content/dam/LifeTech/migration/files/drug-discovery/pdfs.par.60256.file.dat/20130430%20ssbk%20customer%20protocol%20and%20assay%20conditions.pdf). The Z′-LYTE biochemical assay (ThermoFisher) employs a fluorescence-based, coupled-enzyme format and is based on the differential sensitivity of phosphorylated and non-phosphorylated peptides to proteolytic cleavage.
Test compounds in 100% DMSO were screened in 1% DMSO (final) in the well. For 10 point titrations, 3-fold serial dilutions are conducted from the starting concentration of 30 μM.
After the 1 hour incubation, 5 μL of a 1:1024 dilution of Development Reagent A (available from Invitrogen, catalog no. PV3295) was added.
ATP solutions were diluted to a 4× working concentration in Kinase Buffer (50 mM HEPES pH 7.5, 0.01% BRIJ-35, 10 mM MgCl2, 1 mM EGTA). ATP Km apparent was previously determined using a Z′-LYTE assay. The Development Reagent was diluted in Development Buffer (available from Invitrogen, catalog no. P3127).
Assay Protocol: 2.5 μL of 4× test compound or 100 nL of 100× Test Compound plus 2.4 μL Kinase Buffer, 5 μL of the 2× Peptide/Kinase Mixture, 2.5 μL of 4×ATP Solution were added to the plates and placed on a shake plate for 30-seconds. The kinase reaction was allowed to proceed for 60-minute at room temperature, before 5 μL of Development Reagent Solution was added, and the mixture agitated for 30-seconds on a shake plate. The mixture was incubated for 60-minute at room temperature. Fluorescence was measured using a plate reader and the data were analyzed.
This control yielded 100% cleaved peptide in the Development Reaction. The 100% Phosphorylation Control, which consisted of a synthetically phosphorylated peptide of the same sequence as the peptide substrate, was designed to allow for the calculation of percent phosphorylation. This control yielded a very low percentage of cleaved peptide in the Development Reaction. The 0% Phosphorylation and 100% Phosphorylation Controls allow for the calculation of the percent phosphorylation achieved in a specific reaction well.
The minimum emission ratio in a screen was established by the 0% Inhibition Control, which contained active kinase. This control was designed to produce a 10-50% phosphorylated peptide in the Kinase Reaction. Cascade assays may produce up to 70% phosphorylated peptide.
A known inhibitor control standard curve, 10 point titration, was run for each individual kinase on the same plate as the kinase to ensure the kinase was inhibited within an expected IC50 range previously determined.
The following controls are prepared for each concentration of Test Compound assayed. […] The expected value for a non-interfering compound should be 100%. Any value outside of 90% to 110% was flagged. […] The expected value for a non-fluorescence compound should be 0%. Any value >20% was flagged.
The data in Table A was calculated. XLfit from IDBS was used. The dose response curve was curve fit to model number 205 (sigmoidal dose-response model).

The conditions of data set [4]: systemic exposure, background statement; cited from earlier work.
The test system of data set [5] is A375 cells. Kind of data set: Cell-Based Assay-2 (Example 5): Cell Titer-Glo viability, A375 (BRAF) GI50. To be noted: Homo sapiens, A-375; Table 8, compounds of formula (II); 72 hours. How it is done: (§1) Alternatively, the following procedure can be used to measure cell-based activity. Test compounds were dissolved in DMSO in 10 mM stock. Cell Titer-Glo® 2.0 Luminescent cell viability assay reagent was purchased from Promega (Madison, Wis.). A375 and HCT116 cell lines were purchased from American Type Culture Collection (Manassas, Va.). For A375 cells, cell culture media was DMEM+10% FBS. For HCT116 cells, cell culture media was McCoy's 5A+10% FBS. All media were supplemented with 100 μg/mL of penicillin, and 100 μg/mL of streptomycin. Cultures were maintained at 37° C. in a humidified atmosphere of 5% CO2 and 95% air.
(§2) Test compounds were diluted in DMSO solution with 10-dose and 3-fold dilutions in a source plate starting at 10 mM. […] Luminescence was recorded by Envision 2104 Multilabel Reader (PerkinElmer, Santa Clara, Calif.). The number of viable cells in culture was determined based on quantitation of the ATP present in each culture well. […] Luminescence was recorded by Envision 2104 Multilabel Reader (PerkinElmer, Santa Clara, Calif.). The number of viable cells in culture was determined based on quantitation of the ATP present in each culture well. […] All parameters in the equation were calculated by GraphPad Prism 4 program. […] Accordingly, GI50 is the value of 10^X, where X was calculated by the Curve Fitting Equation when Y=50 using Excel.
On the technique in general: In ATP-based viability assays light output follows the ATP content of the culture.

Data set [6] has as its system HCT116 cells. Kind of data set: Cell-Based Assay-2 (Example 5): Cell Titer-Glo viability, HCT116 (Kras) GI50. To be noted: Homo sapiens, HCT-116; Table 8, compounds of formula (II); 72 hours; read-out: Assay 3: HCT116 (Kras) GI50. On the procedure:
as §1, §2

Setting [7] is: FIGS. 3 and 4, 1% by weight compound, 1% hydroxypropyl cellulose in DMSO/PEG 400 1:1, 4 hours.

Where two headings read alike, the source gives them in different places. Where only a bound is given, the exact number is not on record here.

T1 sequence (Q02750 whole entry): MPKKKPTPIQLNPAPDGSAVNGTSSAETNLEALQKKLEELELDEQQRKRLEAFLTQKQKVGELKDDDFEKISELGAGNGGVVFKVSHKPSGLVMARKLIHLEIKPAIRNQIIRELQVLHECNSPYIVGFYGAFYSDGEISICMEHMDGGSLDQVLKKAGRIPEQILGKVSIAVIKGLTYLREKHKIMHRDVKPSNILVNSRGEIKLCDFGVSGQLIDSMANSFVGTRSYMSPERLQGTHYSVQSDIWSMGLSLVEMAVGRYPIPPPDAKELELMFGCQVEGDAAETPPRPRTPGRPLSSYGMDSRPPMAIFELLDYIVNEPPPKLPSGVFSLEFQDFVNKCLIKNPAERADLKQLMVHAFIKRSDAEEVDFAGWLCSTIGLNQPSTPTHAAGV
T2 sequence (Q02750 whole entry): as above

As for `O=C1CCCc2c1sc(Nc1ccc(I)cc1F)c2C(=O)NOCCO` [Compound 4.029], the IC50 (as a rule, the point on the concentration scale where inhibition reaches its midpoint) is no more than 500 nM in data set [1] (Table 10, compounds of formula (IV), Example 2) and no more than 150 nM in data set [3]. For the same compound, the “suppression of p-ERK in human nevus sebaceous explants” value in data set [2] (setting [7]) was “suppression of p-ERK”.

For the compound `O=C(NOC[C@H](O)CO)c1ccc(F)c(F)c1Nc1ccc(I)cc1F` [PD0325901], the “side effects of a clinically-tested MEK inhibitor” value in data set [4] is “neurological side effects associated with ataxia, confusion, and syncope”.

Take `Cn1c(Nc2ccc(I)cc2F)c(C(=O)NOCCO)c2cccnc21` [Compound 2.003]: the “suppression of p-ERK in human nevus sebaceous explants” value in data set [2] (FIG. 5, 0.01% by weight compound, 1.5% hydroxypropyl cellulose in base formulation, 4 hours) is on record as “suppression of p-ERK”; in data set [2] (setting [7]), “suppression of p-ERK”. In addition, in data set [2] (FIG. 6, 0.01%, 0.15% or 1.00% by weight compound, 4 hours), the “dose response in suppression of p-ERK in human nevus sebaceous explants” value was “dose response”.

With `Cn1c(Nc2ccc(I)cc2F)c(C(=O)NOC[C@@H](O)CO)c2cccnc21` [Compound 2.006], the GI50 – broadly, the concentration giving 50% growth inhibition – was found to be 81 nM in data set [5] and 448 nM in data set [6]. For the same compound, the IC50 in data set [1] (Table 8, compounds of formula (II), tested by Example 2) turned out to be 371 nM.

(Values after patent publication US20230013227A1, “ARYL-ANILINE AND HETEROARYL-ANILINE COMPOUNDS FOR TREATMENT OF BIRTHMARKS” (NFlection Therapeutics, Inc., priority 2018, published 2023).)
